Key:
EPHB1 = biological target: T1, EPHB1 (Homo sapiens, UniProt P54762); assay: KINOMEscan at 1 μM, EPHB1; type: binding; conditions: 1000 nM, read-out: Percent Control
T1 construct: purchased Eurofins DiscoverX KINOMEscan
Description: (§1) Supplement cells-12-00287-s001.zip/File S2. KinomeScan data for the CAMKK2 probe and negative control.xlsx, sheet "SGC-CAMKK2-1N" | column: Percent Control

[1] = biological target: T2, EGFR(L747-S752del, P753S) (Homo sapiens, UniProt P00533, DEL747-752/P753S); assay: KINOMEscan binding assay at 1 μM, EGFR(L747-S752del, P753S); conditions: Compound Concentration 1000 nM; read-out: Percent Control
T2 construct: purchased Eurofins DiscoverX KINOMEscan
Description: as §1

[2] = biological target: T3, ABL1(F317I)-nonphosphorylated (Homo sapiens, UniProt P00519, F317I); assay: KINOMEscan at 1 μM, ABL1(F317I)-nonphosphorylated; type: binding; conditions: 1000 nM, read-out: Percent Control
T3 construct: purchased Eurofins DiscoverX KINOMEscan
Description: as §1

ALK [3] = biological target: T4, ALK (Homo sapiens, UniProt Q9UM73); assay: KINOMEscan at 1 μM, ALK; type: binding; conditions: 1000 nM, read-out: Percent Control
T4 construct: purchased Eurofins DiscoverX KINOMEscan
Description: as §1

PCTK3 = biological target: T5, PCTK3 (Homo sapiens, UniProt Q07002); assay: KINOMEscan binding assay at 1 μM, PCTK3; conditions: Compound Concentration 1000 nM; read-out: Percent Control
T5 construct: purchased Eurofins DiscoverX KINOMEscan
Description: as §1

MKNK1 = biological target: T6, MKNK1 (Homo sapiens, UniProt Q9BUB5); assay: KINOMEscan at 1 μM, MKNK1; type: binding; conditions: 1000 nM, read-out: Percent Control
T6 construct: purchased Eurofins DiscoverX KINOMEscan
Description: as §1

VRK2 = biological target: T7, VRK2 (Homo sapiens, UniProt Q86Y07); assay: KINOMEscan at 1 μM, VRK2; type: binding; conditions: 1000 nM, read-out: Percent Control
T7 construct: purchased Eurofins DiscoverX KINOMEscan
Description: as §1

STK33 = biological target: T8, STK33 (Homo sapiens, UniProt Q9BYT3); assay: KINOMEscan binding assay at 1 μM, STK33; conditions: Compound Concentration 1000 nM; read-out: Percent Control
T8 construct: purchased Eurofins DiscoverX KINOMEscan
Description: as §1

FLT4 = biological target: T9, FLT4 (Homo sapiens, UniProt P35916); assay: KINOMEscan at 1 μM, FLT4; type: binding; conditions: 1000 nM, read-out: Percent Control
T9 construct: purchased Eurofins DiscoverX KINOMEscan
Description: as §1

[4] = biological target: T10, ABL1(F317L)-nonphosphorylated (Homo sapiens, UniProt P00519, F317L); assay: KINOMEscan at 1 μM, ABL1(F317L)-nonphosphorylated; type: binding; conditions: 1000 nM, read-out: Percent Control
T10 construct: purchased Eurofins DiscoverX KINOMEscan
Description: as §1

PIM1 = biological target: T11, PIM1 (Homo sapiens, UniProt P11309); assay: KINOMEscan at 1 μM, PIM1; type: binding; conditions: 1000 nM, read-out: Percent Control
T11 construct: purchased Eurofins DiscoverX KINOMEscan
Description: as §1

CDK4 [5] = biological target: T12, CDK4 (Homo sapiens, UniProt P11802); assay: KINOMEscan at 1 μM, CDK4; type: binding; conditions: 1000 nM, read-out: Percent Control
T12 construct: purchased Eurofins DiscoverX KINOMEscan
Description: as §1

PIK3CB = biological target: T13, PIK3CB (Homo sapiens, UniProt P42338); assay: KINOMEscan at 1 μM, PIK3CB; type: binding; conditions: 1000 nM, read-out: Percent Control
T13 construct: purchased Eurofins DiscoverX KINOMEscan
Description: as §1

CSNK1G2 = biological target: T14, CSNK1G2 (Homo sapiens, UniProt P78368); assay: KINOMEscan at 1 μM, CSNK1G2; type: binding; conditions: 1000 nM, read-out: Percent Control
T14 construct: purchased Eurofins DiscoverX KINOMEscan
Description: as §1

WNK2 = biological target: T15, WNK2 (Homo sapiens, UniProt Q9Y3S1); assay: KINOMEscan at 1 μM, WNK2; type: binding; conditions: 1000 nM, read-out: Percent Control
T15 construct: purchased Eurofins DiscoverX KINOMEscan
Description: as §1

CDKL3 = biological target: T16, CDKL3 (Homo sapiens, UniProt Q8IVW4); assay: KINOMEscan 1 μM, CDKL3; type: binding; conditions: 1000 nM; Entrez CDKL3; read-out: Percent Control
T16 construct: purchased Eurofins DiscoverX KINOMEscan
Description: (§2) Supplement cells-12-00287-s001.zip/File S2. KinomeScan data for the CAMKK2 probe and negative control.xlsx, sheet "SGC-CAMKK2-1" | column: Percent Control

IGF1R = biological target: T17, IGF1R (Homo sapiens, UniProt P08069); assay: KINOMEscan 1 μM, IGF1R; type: binding; conditions: 1000 nM; Entrez IGF1R; read-out: Percent Control
T17 construct: purchased Eurofins DiscoverX KINOMEscan
Description: as §2

MST1 = biological target: T18, MST1 (Homo sapiens, UniProt Q13043); assay: KINOMEscan 1 μM, MST1; type: binding; conditions: 1000 nM; Entrez STK4; read-out: Percent Control
T18 construct: purchased Eurofins DiscoverX KINOMEscan
Description: as §2

ADCK3 = biological target: T19, ADCK3 (Homo sapiens, UniProt Q8NI60); assay: KINOMEscan 1 μM, ADCK3; type: binding; conditions: 1000 nM; Entrez CABC1; read-out: Percent Control
T19 construct: purchased Eurofins DiscoverX KINOMEscan
Description: as §2

CDK4 [6] = biological target: T12, CDK4; assay: KINOMEscan 1 μM, CDK4; type: binding; conditions: 1000 nM; Entrez CDK4; read-out: Percent Control
Description: as §2

PRP4 = biological target: T20, PRP4 (Homo sapiens, UniProt Q13523); assay: DiscoverX KINOMEscan binding assay at 1 μM, PRP4; conditions: PRP4 (PRPF4B); Compound Concentration 1000 nM; read-out: Percent Control
T20 construct: purchased Eurofins DiscoverX KINOMEscan
Description: as §2

EGFR = biological target: T21, EGFR (Homo sapiens, UniProt P00533); assay: KINOMEscan 1 μM, EGFR; type: binding; conditions: 1000 nM; Entrez EGFR; read-out: Percent Control
T21 construct: purchased Eurofins DiscoverX KINOMEscan
Description: as §2

EGFR(L861Q) = biological target: T22, EGFR(L861Q) (Homo sapiens, UniProt P00533, L861Q); assay: KINOMEscan 1 μM, EGFR(L861Q); type: binding; conditions: 1000 nM; Entrez EGFR; read-out: Percent Control
T22 construct: purchased Eurofins DiscoverX KINOMEscan
Description: as §2

FLT3-autoinhibited = biological target: T23, FLT3-autoinhibited (Homo sapiens, UniProt P36888); assay: KINOMEscan 1 μM, FLT3-autoinhibited; type: binding; conditions: 1000 nM; Entrez FLT3; read-out: Percent Control
T23 construct: purchased Eurofins DiscoverX KINOMEscan
Description: as §2

MAP3K2 = biological target: T24, MAP3K2 (Homo sapiens, UniProt Q9Y2U5); assay: KINOMEscan 1 μM, MAP3K2; type: binding; conditions: 1000 nM; Entrez MAP3K2; read-out: Percent Control
T24 construct: purchased Eurofins DiscoverX KINOMEscan
Description: as §2

CAMK1B = biological target: T25, CAMK1B (Homo sapiens, UniProt Q6P2M8); assay: KINOMEscan 1 μM, CAMK1B; type: binding; conditions: 1000 nM; Entrez PNCK; read-out: Percent Control
T25 construct: purchased Eurofins DiscoverX KINOMEscan
Description: as §2

LCK = biological target: T26, LCK (Homo sapiens, UniProt P06239); assay: KINOMEscan 1 μM, LCK; type: binding; conditions: 1000 nM; Entrez LCK; read-out: Percent Control
T26 construct: purchased Eurofins DiscoverX KINOMEscan
Description: as §2

[7] = biological target: T27, ABL1(M351T)-phosphorylated (Homo sapiens, UniProt P00519, M351T); assay: KINOMEscan 1 μM, ABL1(M351T)-phosphorylated; type: binding; conditions: 1000 nM; Entrez ABL1; read-out: Percent Control
T27 construct: purchased Eurofins DiscoverX KINOMEscan
Description: as §2

ALK [8] = biological target: T4, ALK; assay: KINOMEscan 1 μM, ALK; type: binding; conditions: 1000 nM; Entrez ALK; read-out: Percent Control
Description: as §2

p38-gamma = biological target: T28, p38-gamma (Homo sapiens, UniProt P53778); assay: KINOMEscan 1 μM, p38-gamma; type: binding; conditions: 1000 nM; Entrez MAPK12; read-out: Percent Control
T28 construct: purchased Eurofins DiscoverX KINOMEscan
Description: as §2

SNRK = biological target: T29, SNRK (Homo sapiens, UniProt Q9NRH2); assay: KINOMEscan 1 μM, SNRK; type: binding; conditions: 1000 nM; Entrez SNRK; read-out: Percent Control
T29 construct: purchased Eurofins DiscoverX KINOMEscan
Description: as §2

PIK3CA(M1043I) = biological target: T30, PIK3CA(M1043I) (Homo sapiens, UniProt P42336, M1043I); assay: DiscoverX KINOMEscan binding assay at 1 μM, PIK3CA(M1043I); conditions: Compound Concentration 1000 nM, read-out: Percent Control
T30 construct: purchased Eurofins DiscoverX KINOMEscan
Description: as §2

[9] = biological target: T31, RPS6KA4(Kin.Dom.2-C-terminal) (Homo sapiens, UniProt O75676); assay: DiscoverX KINOMEscan binding assay at 1 μM, RPS6KA4(Kin.Dom.2-C-terminal); conditions: Compound Concentration 1000 nM, read-out: Percent Control
T31 construct: RPS6KA4(Kin.Dom.2-C-terminal); purchased Eurofins DiscoverX KINOMEscan
Description: as §2

T4 sequence (Q9UM73 19-1620): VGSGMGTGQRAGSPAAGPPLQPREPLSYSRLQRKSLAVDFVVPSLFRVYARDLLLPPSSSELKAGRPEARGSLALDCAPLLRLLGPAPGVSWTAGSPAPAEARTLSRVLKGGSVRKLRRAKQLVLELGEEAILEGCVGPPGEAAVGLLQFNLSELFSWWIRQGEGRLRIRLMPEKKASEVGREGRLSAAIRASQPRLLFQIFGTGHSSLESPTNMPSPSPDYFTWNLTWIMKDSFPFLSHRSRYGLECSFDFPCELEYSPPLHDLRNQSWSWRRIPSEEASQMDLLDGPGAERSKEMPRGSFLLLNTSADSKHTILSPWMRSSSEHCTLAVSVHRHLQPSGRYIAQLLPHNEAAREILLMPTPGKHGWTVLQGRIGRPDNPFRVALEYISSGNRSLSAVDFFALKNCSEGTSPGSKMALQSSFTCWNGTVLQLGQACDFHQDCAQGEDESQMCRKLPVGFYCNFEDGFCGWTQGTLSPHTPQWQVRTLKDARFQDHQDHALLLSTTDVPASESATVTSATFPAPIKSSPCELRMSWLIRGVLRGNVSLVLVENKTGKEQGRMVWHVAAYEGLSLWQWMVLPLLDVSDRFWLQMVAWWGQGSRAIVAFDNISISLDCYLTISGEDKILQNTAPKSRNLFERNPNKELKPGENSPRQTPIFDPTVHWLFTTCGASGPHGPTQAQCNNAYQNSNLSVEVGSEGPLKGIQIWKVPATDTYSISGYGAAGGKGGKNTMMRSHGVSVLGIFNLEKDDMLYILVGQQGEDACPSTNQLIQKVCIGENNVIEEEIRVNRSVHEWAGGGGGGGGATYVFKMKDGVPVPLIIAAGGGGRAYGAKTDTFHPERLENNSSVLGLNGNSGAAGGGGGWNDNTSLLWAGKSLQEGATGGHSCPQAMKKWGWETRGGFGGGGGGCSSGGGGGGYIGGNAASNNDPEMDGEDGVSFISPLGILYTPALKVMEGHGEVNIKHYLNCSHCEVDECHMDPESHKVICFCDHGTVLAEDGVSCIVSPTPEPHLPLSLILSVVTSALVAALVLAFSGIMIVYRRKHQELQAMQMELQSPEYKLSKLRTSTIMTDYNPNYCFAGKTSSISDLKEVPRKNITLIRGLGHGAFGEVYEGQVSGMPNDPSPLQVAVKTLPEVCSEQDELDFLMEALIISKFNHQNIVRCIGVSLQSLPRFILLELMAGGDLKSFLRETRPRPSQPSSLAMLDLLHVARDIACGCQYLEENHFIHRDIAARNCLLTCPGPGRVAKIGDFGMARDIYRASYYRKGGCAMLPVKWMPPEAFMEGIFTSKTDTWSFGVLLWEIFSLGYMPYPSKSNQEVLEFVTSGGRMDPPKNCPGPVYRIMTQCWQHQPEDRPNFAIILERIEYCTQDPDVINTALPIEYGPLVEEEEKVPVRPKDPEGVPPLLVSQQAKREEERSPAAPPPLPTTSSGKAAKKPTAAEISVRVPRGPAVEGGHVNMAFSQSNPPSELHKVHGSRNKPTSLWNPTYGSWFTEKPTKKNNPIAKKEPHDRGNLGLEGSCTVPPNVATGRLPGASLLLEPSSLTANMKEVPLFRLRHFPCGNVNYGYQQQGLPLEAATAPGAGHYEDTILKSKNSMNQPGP
T12 sequence (P11802 whole entry): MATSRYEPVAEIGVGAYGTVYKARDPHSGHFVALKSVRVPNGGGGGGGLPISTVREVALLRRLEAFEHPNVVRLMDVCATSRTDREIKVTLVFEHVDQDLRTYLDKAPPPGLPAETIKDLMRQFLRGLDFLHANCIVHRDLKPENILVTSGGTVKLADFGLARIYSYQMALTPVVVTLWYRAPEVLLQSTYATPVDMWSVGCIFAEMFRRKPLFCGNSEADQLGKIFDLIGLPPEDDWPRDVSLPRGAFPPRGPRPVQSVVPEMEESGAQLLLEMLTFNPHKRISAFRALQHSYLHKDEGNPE
T18 sequence (Q13043 whole entry): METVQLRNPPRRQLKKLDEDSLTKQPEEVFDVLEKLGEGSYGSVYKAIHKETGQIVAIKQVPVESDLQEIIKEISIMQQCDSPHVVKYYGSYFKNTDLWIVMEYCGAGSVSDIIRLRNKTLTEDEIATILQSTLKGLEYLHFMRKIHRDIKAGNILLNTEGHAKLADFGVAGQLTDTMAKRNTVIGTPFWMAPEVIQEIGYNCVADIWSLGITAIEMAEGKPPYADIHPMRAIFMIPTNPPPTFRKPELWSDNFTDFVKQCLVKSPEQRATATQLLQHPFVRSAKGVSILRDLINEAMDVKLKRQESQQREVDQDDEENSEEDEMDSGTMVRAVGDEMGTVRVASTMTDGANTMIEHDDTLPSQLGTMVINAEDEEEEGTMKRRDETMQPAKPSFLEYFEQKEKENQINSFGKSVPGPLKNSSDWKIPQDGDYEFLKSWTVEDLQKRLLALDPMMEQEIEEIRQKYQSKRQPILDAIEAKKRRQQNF
T13 sequence (P42338 whole entry): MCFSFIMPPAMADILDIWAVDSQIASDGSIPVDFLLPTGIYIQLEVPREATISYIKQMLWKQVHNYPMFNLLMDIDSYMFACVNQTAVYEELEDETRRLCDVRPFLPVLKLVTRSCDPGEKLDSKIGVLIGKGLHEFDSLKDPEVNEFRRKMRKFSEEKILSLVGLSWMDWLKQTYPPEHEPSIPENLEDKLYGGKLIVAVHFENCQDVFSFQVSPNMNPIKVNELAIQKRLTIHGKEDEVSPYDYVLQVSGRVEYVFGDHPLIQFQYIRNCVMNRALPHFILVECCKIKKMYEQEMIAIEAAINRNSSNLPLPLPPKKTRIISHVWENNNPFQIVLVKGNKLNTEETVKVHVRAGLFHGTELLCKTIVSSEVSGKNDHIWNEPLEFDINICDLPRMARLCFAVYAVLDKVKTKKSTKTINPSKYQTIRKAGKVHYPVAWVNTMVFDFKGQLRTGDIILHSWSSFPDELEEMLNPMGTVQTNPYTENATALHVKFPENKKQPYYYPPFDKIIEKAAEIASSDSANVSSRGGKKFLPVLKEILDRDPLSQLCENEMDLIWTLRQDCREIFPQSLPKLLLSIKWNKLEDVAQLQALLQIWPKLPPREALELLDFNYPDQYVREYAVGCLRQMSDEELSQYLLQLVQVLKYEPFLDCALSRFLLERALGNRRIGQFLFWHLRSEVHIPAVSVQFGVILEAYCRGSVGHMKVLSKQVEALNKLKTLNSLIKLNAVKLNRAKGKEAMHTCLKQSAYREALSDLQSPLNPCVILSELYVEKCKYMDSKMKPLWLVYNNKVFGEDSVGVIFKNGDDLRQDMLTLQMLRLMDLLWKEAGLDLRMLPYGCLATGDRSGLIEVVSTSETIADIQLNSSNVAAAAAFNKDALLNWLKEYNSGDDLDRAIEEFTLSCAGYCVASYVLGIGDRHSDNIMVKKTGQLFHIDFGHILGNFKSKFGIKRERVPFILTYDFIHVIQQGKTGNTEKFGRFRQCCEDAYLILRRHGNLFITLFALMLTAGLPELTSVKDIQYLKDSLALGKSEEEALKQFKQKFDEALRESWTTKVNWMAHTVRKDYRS
T23 sequence (P36888 27-993): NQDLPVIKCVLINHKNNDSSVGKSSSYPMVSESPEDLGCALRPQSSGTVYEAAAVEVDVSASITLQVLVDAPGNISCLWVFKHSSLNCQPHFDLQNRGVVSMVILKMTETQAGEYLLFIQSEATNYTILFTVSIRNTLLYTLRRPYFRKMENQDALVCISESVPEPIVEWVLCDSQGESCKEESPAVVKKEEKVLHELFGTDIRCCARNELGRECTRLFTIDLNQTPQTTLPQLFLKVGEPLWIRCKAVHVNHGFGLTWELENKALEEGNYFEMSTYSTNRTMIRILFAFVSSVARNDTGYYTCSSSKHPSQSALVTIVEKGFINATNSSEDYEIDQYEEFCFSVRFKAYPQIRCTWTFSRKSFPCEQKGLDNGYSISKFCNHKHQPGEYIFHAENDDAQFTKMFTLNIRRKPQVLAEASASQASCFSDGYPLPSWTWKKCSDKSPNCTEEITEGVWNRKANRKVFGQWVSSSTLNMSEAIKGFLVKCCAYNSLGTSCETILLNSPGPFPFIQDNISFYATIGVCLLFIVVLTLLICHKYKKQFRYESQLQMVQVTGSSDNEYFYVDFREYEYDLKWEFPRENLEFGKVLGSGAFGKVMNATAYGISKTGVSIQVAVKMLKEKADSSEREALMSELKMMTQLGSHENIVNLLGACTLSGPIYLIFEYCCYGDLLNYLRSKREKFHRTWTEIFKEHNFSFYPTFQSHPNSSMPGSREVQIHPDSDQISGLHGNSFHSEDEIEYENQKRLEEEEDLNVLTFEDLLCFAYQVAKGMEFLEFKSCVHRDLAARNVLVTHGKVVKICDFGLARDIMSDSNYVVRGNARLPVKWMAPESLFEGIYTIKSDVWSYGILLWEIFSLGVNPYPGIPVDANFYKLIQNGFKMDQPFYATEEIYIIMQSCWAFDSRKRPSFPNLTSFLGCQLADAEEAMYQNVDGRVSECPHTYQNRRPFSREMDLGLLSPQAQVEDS
T28 sequence (P53778 whole entry): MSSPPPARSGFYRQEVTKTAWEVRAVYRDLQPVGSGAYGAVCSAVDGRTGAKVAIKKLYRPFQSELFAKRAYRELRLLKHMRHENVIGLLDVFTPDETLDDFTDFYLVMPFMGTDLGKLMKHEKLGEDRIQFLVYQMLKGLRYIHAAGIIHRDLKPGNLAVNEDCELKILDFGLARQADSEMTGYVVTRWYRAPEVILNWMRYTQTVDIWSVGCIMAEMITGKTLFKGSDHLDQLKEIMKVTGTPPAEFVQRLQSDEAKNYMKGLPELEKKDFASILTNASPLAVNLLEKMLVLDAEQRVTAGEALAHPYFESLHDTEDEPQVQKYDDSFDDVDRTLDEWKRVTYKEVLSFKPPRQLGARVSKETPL

Structure (SMILES): O=C(O)c1ccc(-c2coc3ncc(-c4ccccc4)cc23)cc1Cl [SGC-CAMKK2-1N (UNC-YL-83)]
- remaining binding at 1 µM (EPHB1): 91%
- remaining binding at 1 µM [1]: 100%
- remaining binding at 1 µM [2]: 37%
- remaining binding at 1 µM (ALK [3]): 66%
- remaining binding at 1 µM (PCTK3): 100%
- remaining binding at 1 µM (MKNK1): 49%
- remaining binding at 1 µM (VRK2): 58%
- remaining binding at 1 µM (STK33): 100%
- remaining binding at 1 µM (FLT4): 82%
- remaining binding at 1 µM [4]: 100%
- remaining binding at 1 µM (PIM1): 75%
- remaining binding at 1 µM (CDK4 [5]): 82%
- remaining binding at 1 µM (PIK3CB): 67%
- remaining binding at 1 µM (CSNK1G2): 100%
- remaining binding at 1 µM (WNK2): 58%

Structure (SMILES): Cc1cccc(-c2cnc3occ(-c4ccc(C(=O)O)c(C5CCCC5)c4)c3c2)c1 [SGC-CAMKK2-1 (YL-36)]
- remaining binding at 1 µM (CDKL3): 96%
- remaining binding at 1 µM (IGF1R): 100%
- remaining binding at 1 µM (MST1): 100%
- remaining binding at 1 µM (ADCK3): 100%
- remaining binding at 1 µM (CDK4 [6]): 100%
- remaining binding at 1 µM (PRP4): 100%
- remaining binding at 1 µM (EGFR): 91%
- remaining binding at 1 µM (EGFR(L861Q)): 47%
- remaining binding at 1 µM (FLT3-autoinhibited): 100%
- remaining binding at 1 µM (MAP3K2): 100%
- remaining binding at 1 µM (CAMK1B): 64%
- remaining binding at 1 µM (LCK): 86%
- remaining binding at 1 µM [7]: 100%
- remaining binding at 1 µM (ALK [8]): 100%
- remaining binding at 1 µM (p38-gamma): 82%
- remaining binding at 1 µM (SNRK): 94%
- remaining binding at 1 µM (PIK3CA(M1043I)): 100%
- remaining binding at 1 µM [9]: 100%

From publication PMC9856672, “SGC-CAMKK2-1: A Chemical Probe for CAMKK2” (Cells, 2023)
